Assay results taken from ChEMBL document CHEMBL1141972, “4'C-ethynyl-thymidine acts as a chain terminator during DNA-synthesis catalyzed by HIV-1 reverse transcriptase” (Bioorg Med Chem Lett, 2005).

Target: Human immunodeficiency virus type 1 reverse transcriptase (Human immunodeficiency virus 1, UniProt Q72547)
Test: Inhibitory concentration against human immunodeficiency virus type 1 reverse transcriptase

Structure (SMILES) | IC50 [nM]
Cc1cn([C@H]2C[C@H](N=[N+]=[N-])[C@@H](CO[P@](=O)(O)O[P@](=O)(O)OP(=O)(O)O)O2)c(=O)[nH]c1=O [ZIDOVUDINE TRIPHOSPHATE] | 2100
C#C[C@]1(COP(=O)(O)OP(=O)(O)OP(=O)(O)O)O[C@@H](n2cc(C)c(=O)[nH]c2=O)C[C@@H]1O | 3280
